Results published in PMC7817691 (Nature Communications, 2021).

What was measured:
SARS-CoV-2 PLpro [1] = target: T1, SARS-CoV-2 PLpro (Severe acute respiratory syndrome coronavirus 2, UniProt P0DTD1); type: binding
T1 construct: gene rep

SARS-CoV-2 PLpro [2] = target: T1, SARS-CoV-2 PLpro; type: biochemical

Cc1ccc(N)cc1C(=O)N[C@H](C)c1cccc2ccccc12 [GRL0617]
1H,15N-HSQC NMR competition with 15N-ISG15 (SARS-CoV-2 PLpro [1]): GRL0617 competes with ISG15 for the binding site in PLpro

CC(=O)Nc1ccc(C)c(C(=O)N[C@H](C)c2cccc3ccccc23)c1 [compound 6]
IC50 (SARS-CoV-2 PLpro [2]): 11 ± 3 µM

Nc1nc(=S)c2[nH]cnc2[nH]1 [Tioguanine]
IC50 (SARS-CoV-2 PLpro [2]): 72 ± 12 µM
